Read-outs that look alike come from different tables or passages of the source.
How the values were obtained:
[1] = tested on: rat phrenic nerve-hemidiaphragm preparations; conditions: cited from earlier work
[2] = mouse, in vivo, ip, 3 mg/kg
[3] = mouse, in vivo
[4] = tested on: BoNT/A; assay type: in vivo, mouse; conditions: n = 10
[5] = target: Shaker-IR KV channel (Drosophila melanogaster, UniProt P08510, DEL6-46); assay: cell-based
[6] = tested on: serotype A botulinum neurotoxin-induced paralysis of mouse phrenic nerve-hemidiaphragm preparations
[7] = in vivo; conditions: male, CD-1, mouse, ip, 3 mg/kg

Structure (SMILES)	toxicity (distress) after compound alone [3]	Rescue of BoNT/A intoxicated mice [4]	Hill coefficient [5]	Ability to reverse BoNT/A-induced muscle paralysis [6]	Tmax [7] [min]	half-life [7] [min]	IC50 [5] [µM]	further results
C[n+]1ccc(N)c(N)c1 [Compound 4, 3,4-diamino-1-methylpyridinium]								activity in rat phrenic nerve-hemidiaphragm preparations [1]: inactive
C#CC[n+]1ccc(N)c(N)c1 [Compound 11, 3,4-diamino-1-(prop-2-ynyl)pyridinium]	no distress was observed	low efficacy	1.28 ± 0.34					AUC(0-infinity) (plasma) [2]: 620 ng·h/mL; Cmax (plasma) [2]: 402 ng/mL; Tmax (plasma) [2]: 30 min; brain exposure as percentage of the plasma exposure [2]: 13%; plasma half-life [2]: 72 min; IC50 ([5]; read-out: K0.5 (compound concentration required to achieve 50% inhibition)): 22.2 ± 4.3 µM
CC[N+](CC)(CC)CCCc1ccccc1 [Compound 12, triethyl-3-phenylpropylammonium]				apparent neurotoxicity of the compound 12 prevented determination				
c1cc2nc[nH]c2cn1 [Compound 7, 5-azabenzimidazole]				unable to reverse BoNT/A-induced muscle paralysis				
Nc1ccncc1N [Compound 3, 3,4 diaminopyridine, reference compound]			1.04 ± 0.18		30	20.4	26.7 ± 4	
Nc1cncc(N)c1N [Compound 5, 3,4,5-Triaminopyridine]	no distress was observed	as effective as 3,4-DAP	1.09 ± 0.13		30	18.6	697	brain exposure [2]: no detectable brain exposure

From article PMC3003761 (ACS chemical biology, 2010)
